{"source": "patent US6514957B1", "about": "“Method of alleviating the violence and stimulating the appetite of stag in the puberty age of the fall and method of promoting the growth of stag's horn” (priority 2001, dated 2003)", "key": {"[1]": {"system": "stags of elk, violent and anorexia in the puberty age of the fall", "test": "Alleviating the violence and stimulating the appetite of stags in the puberty age of the fall", "format": "in vivo", "description": "To 4 stags of elk, each in the weight of 500 kg, which is violent and anorexia in the puberty age of the fall, 17β-decanoate-4-estrene-3-one 500 mg (effective dose corresponding to 1 mg per 1 kg of the weight of stag: “ANABOLIN FORTE” is the trademark manufactured by Alfasan in Nederland and containing 17β-decanoate-4-estrene-3-one 50 mg in a injection product 1 ml; “ANABOLIN FORTE 10 ml” is the trademark imported by BUM-HAN PHARM. in Korea) was intramuscularly-injected.\nTo 8 stags of elk, each in the weight of 500 kg, which is violent and anorexia in the puberty age of the fall, 17β-decanoate-4-estrene-3-one 50 mg, 100 mg, 250 mg, 500 mg, 750 mg, 1,000 mg, 2,500 mg and 5,000 mg (effective doses corresponding to 0.1 mg, 0.2 mg, 0.5 mg, 1.0 mg, 1.5 mg, 2.0 mg, 5.0 mg and 10 mg per 1 kg of the weight of stag: “ANABOLIN FORTE” is the trademark manufactured by Alfasan in Nederland and containing 17β-decanoate-4-estrene-3-one 50 mg in a injection product 1 ml; “ANABOLIN FORTE 1 ml, 2 ml, 5 ml, 10 ml, 15 ml, 20 ml, 50 ml and 100 ml” is the trademark imported by BUM-HAN PHARM. in Korea) were injected-injected.\nExample 6 was the same as Example 1, except that Example 6 substituted 17β-cyclohexylpropionate-4-estrene-3-one for 17β-decanoate-4-estrene-3-one.\nExample 7 was the same as Example 2, except that Example 7 substituted 17β-cyclohexylpropionate-4-estrene-3-one for 17β-decanoate-4-estrene-3-one.\nExample 10 was the same as Example 2, except that Example 9 substituted a compound of 17β-decanoate-4-estrene-3-one and 17β-cyclohexylpropionate-4-estrene-3-one for 17β-decanoate-4-estrene-3-one."}, "[2]": {"system": "stags of elk of which the first horn was cut in the summer", "test": "Promoting the growth of the second stag's horn after cutting the first horn", "format": "in vivo", "conditions": "for Growth and development progress of the second stag's horn: 500 mg (1 mg/kg) injected Oct. 2, 1999 or Oct. 2, 2000", "description": "To 4 stags of elk, of which the first horn coming up in the spring and growing cut in the summer, each in the weight of 500 kg, 17β-decanoate-4-estrene-3-one 500 mg (effective dose corresponding to 1 mg per 1 kg of the weight of stag: “ANABOLIN FORTE” is the trademark manufactured by Alfasan in Nederland and containing 17β-decanoate-4-estrene-3-one 50 mg in a injection product 1 ml; “ANABOLIN FORTE 10 ml” is the trademark imported by BUM-HAN PHARM. in Korea) was injected-injected.\nTo 8 stags of elk, each in the weight of 500 kg, of which the first horn coming up in the spring and grown up cuts in the summer, 17β-decanoate-4-estrene-3-one 50 mg, 100 mg, 250 mg, 500 mg, 750 mg, 1,000 mg, 2,500 mg and 5,000 mg (effective doses corresponding to 0.1 mg, 0.2 mg, 0.5 mg, 1.0 mg, 1.5 mg, 2.0 mg, 5.0 mg and 10 mg per 1 kg of the weight of stag: “ANABOLIN FORTE” is the trademark manufactured by Alfasan in Nederland and containing 17β-decanoate-4-estrene-3-one 50 mg in a injection product 1 ml; “ANABOLIN FORTE 1 ml, 2 ml, 5 ml, 10 ml, 15 ml, 20 ml, 50 ml and 100 ml” is the trademark imported by BUM-HAN PHARM. in Korea) were injected-injected.\nExample 8 was the same as Example 3, except that Example 8 substituted 17β-cyclohexylpropionate-4-estrene-3-one for 17β-decanoate-4-estrene-3-one.\nExample 9 was the same as Example 5, except that Example 9 substituted 17β-cyclohexylpropionate-4-estrene-3-one for 17β-decanoate-4-estrene-3-one.\nExample 11 was the same as Example 3, except that Example 9 substituted a compound of 17β-decanoate-4-estrene-3-one and 17β-cyclohexylpropionate-4-estrene-3-one for 17β-decanoate-4-estrene-3-one."}, "[3]": {"conditions": "Elk 5, 500 kg, dose 50 mg (0.1 mg/kg) injected"}, "[4]": {"conditions": "Elk 6, 500 kg, dose 100 mg (0.2 mg/kg) injected"}, "[5]": {"conditions": "Elk 7, 500 kg, dose 250 mg (0.5 mg/kg) injected"}, "[6]": {"conditions": "Elk 8, 500 kg, dose 500 mg (1.0 mg/kg) injected"}, "[7]": {"conditions": "Elk 9, 500 kg, dose 750 mg (1.5 mg/kg) injected"}, "[8]": {"conditions": "Elk 10, 500 kg, dose 1,000 mg (2.0 mg/kg) injected"}, "[9]": {"conditions": "Elk 11, 500 kg, dose 2,500 mg (5.0 mg/kg) injected"}, "[10]": {"conditions": "Elk 12, 500 kg, dose 5,000 mg (10 mg/kg) injected"}, "[11]": {"conditions": "elk stags 500 kg, doses 0.1, 0.2, 0.5, 1.0, 1.5, 2.0, 5.0 and 10 mg per kg"}}, "note": "Several values for one entry are separate records, joined by “and”; a condition that tells them apart may be missing. Equal values may be shown once. Entries after “also recorded” stand apart in the source; their conditions may differ."}
{"compound": "C[C@]12CC[C@H]3[C@@H](CCC4=CC(=O)CC[C@@H]43)[C@@H]1CC[C@@H]2OC(=O)CCC1CCCCC1", "note": "[17β-cyclohexylpropionate-4-estrene-3-one]", "values": [{"measurement": "test results (violence, appetite) compared with 17β-decanoate-4-estrene-3-one", "setting": "[1]; conducted as Example 1: 500 mg (1 mg/kg) intramuscular, elk stags 500 kg", "value": "the same as those of Example 1"}, {"measurement": "test results (violence, appetite) compared with 17β-decanoate-4-estrene-3-one", "setting": "[1]; conducted as Example 2: 50 to 5,000 mg (0.1 to 10 mg/kg), elk stags 500 kg", "value": "the same as those of Example 2"}, {"measurement": "test results (growth and production amount of the second stag's horn) compared with 17β-decanoate-4-estrene-3-one", "setting": "[2]; conducted as Example 3: 500 mg (1 mg/kg), elk stags 500 kg", "value": "the same as those of Example 3"}, {"measurement": "test results (production amount of the second stag's horn by dose) compared with 17β-decanoate-4-estrene-3-one", "setting": "[2]; conducted as Example 5: 50 to 5,000 mg (0.1 to 10 mg/kg), elk stags 500 kg", "value": "the same as those of Example 5"}]}
{"compound": "CCCCCCCCCC(=O)O[C@H]1CC[C@H]2[C@@H]3CCC4=CC(=O)CC[C@@H]4[C@H]3CC[C@]12C", "note": "[17β-decanoate-4-estrene-3-one]", "values": [{"measurement": "Status After: appetite", "setting": "[1]; [3]", "value": "Stimulating appetite"}, {"measurement": "Status After: violence", "setting": "[1]; [3]", "value": "Alleviating violence"}, {"measurement": "Status After: appetite", "setting": "[1]; [4]", "value": "Stimulating appetite"}, {"measurement": "Status After: violence", "setting": "[1]; [4]", "value": "Alleviating violence"}, {"measurement": "Status After: appetite", "setting": "[1]; [5]", "value": "Stimulating appetite"}, {"measurement": "Status After: violence", "setting": "[1]; [5]", "value": "Alleviating violence"}, {"measurement": "Status After: appetite", "setting": "[1]; [6]", "value": "Stimulating appetite"}, {"measurement": "Status After: violence", "setting": "[1]; [6]", "value": "Alleviating violence"}, {"measurement": "Status After: appetite", "setting": "[1]; [7]", "value": "Stimulating appetite"}, {"measurement": "Status After: violence", "setting": "[1]; [7]", "value": "Alleviating violence"}, {"measurement": "Status After: appetite", "setting": "[1]; [8]", "value": "Stimulating appetite"}, {"measurement": "Status After: violence", "setting": "[1]; [8]", "value": "Alleviating violence"}, {"measurement": "Status After: appetite", "setting": "[1]; [9]", "value": "Stimulating appetite"}, {"measurement": "Status After: violence", "setting": "[1]; [9]", "value": "Alleviating violence"}, {"measurement": "Status After: appetite", "setting": "[1]; [10]", "value": "Stimulating appetite"}, {"measurement": "Status After: violence", "setting": "[1]; [10]", "value": "Alleviating violence"}, {"measurement": "Status After: appetite", "setting": "[1]; elk stags 500 kg, anorexia before, 500 mg (1 mg/kg) intramuscularly injected 2000.10.2, individual Elk 1-4", "value": "stimulated in appetite; also recorded: Stimulating appetite"}, {"measurement": "Status After: violence", "setting": "[1]; elk stags 500 kg, violent before, 500 mg (1 mg/kg) intramuscularly injected 2000.10.2, individual Elk 1-4", "value": "less violent; also recorded: Alleviating violence"}, {"measurement": "intake of feed", "setting": "[1]; elk stags 500 kg, 1.0 mg/kg intramuscularly injected", "value": "increasing the intake of feed"}, {"measurement": "appetite after injection", "setting": "[1]; [11]", "value": "stimulated in appetite"}, {"measurement": "intake of feed", "setting": "[1]; [11]", "value": "increasing the intake of feed"}, {"measurement": "violence after injection", "setting": "[1]; [11]", "value": "less violent"}, {"measurement": "Growth and development progress of the second stag's horn", "setting": "[2]; 0 days after administration, individual Elk 21, 22 (500 kg)", "value": 0, "unit": "cm"}, {"measurement": "production amount of the second stag's horn relative to that of the first stag's horn", "setting": "[2]; 1 mg/kg injected, elk 500 kg", "value": "about 80%"}, {"measurement": "time from administration until the second stag's horn comes up", "setting": "[2]; 1 mg/kg intramuscularly injected, elk 500 kg", "value": 30, "unit": "days"}, {"measurement": "growth rate of the second stag's horn", "setting": "[2]; 1 mg/kg intramuscularly injected, elk 500 kg, after the horn came up", "value": 3, "unit": "cm per a day"}, {"measurement": "Production amount of stag's horn: the second horn collected in the next spring", "setting": "[2]; 500 mg (1 mg/kg) injected 1999.10.2 or 2000.10.2, individual Elk 21, 22 (500 kg)", "value": "12 kg (2×) and 9.6 kg (2×)"}, {"measurement": "Growth and development progress of the second stag's horn", "setting": "[2]; 10 days after administration, individual Elk 21, 22 (500 kg)", "value": 0, "unit": "cm"}, {"measurement": "Growth and development progress of the second stag's horn", "setting": "[2]; 20 days after administration, individual Elk 21, 22 (500 kg)", "value": 0, "unit": "cm"}, {"measurement": "Growth and development progress of the second stag's horn", "setting": "[2]; 30 days after administration, individual Elk 21, 22 (500 kg)", "value": 0.5, "unit": "cm"}, {"measurement": "Growth and development progress of the second stag's horn", "setting": "[2]; 40 days after administration, individual Elk 21, 22 (500 kg)", "value": "approximately 30 cm and 30 cm"}, {"measurement": "Growth and development progress of the second stag's horn", "setting": "[2]; 50 days after administration, individual Elk 21, 22 (500 kg)", "value": 40, "unit": "cm"}, {"measurement": "Growth and development progress of the second stag's horn", "setting": "[2]; 60 days after administration, individual Elk 21, 22 (500 kg)", "value": 60, "unit": "cm"}, {"measurement": "Growth and development progress of the second stag's horn", "setting": "[2]; 70 days after administration, individual Elk 21, 22 (500 kg)", "value": 80, "unit": "cm"}, {"measurement": "Growth and development progress of the second stag's horn", "setting": "[2]; 80 days after administration, individual Elk 21, 22 (500 kg)", "value": "90 cm and 100 cm (3×)"}, {"measurement": "Growth and development progress of the second stag's horn", "setting": "[2]; 90 days after administration, individual Elk 21, 22 (500 kg)", "value": "100 cm and 110 cm (2×) and 120 cm"}, {"measurement": "Growth and development progress of the second stag's horn", "setting": "[2]; 100 days after administration, individual Elk 21, 22 (500 kg)", "value": "100 cm and 110 cm (2×) and 120 cm"}, {"measurement": "Production amount of stag's horn: the second horn collected in the next spring", "setting": "[2]; Elk 31, 500 kg, dose 50 mg (0.1 mg/kg), first horn 15 kg", "value": 5, "unit": "kg"}, {"measurement": "Production amount of stag's horn: the second horn collected in the next spring", "setting": "[2]; Elk 32, 500 kg, dose 100 mg (0.2 mg/kg), first horn 15 kg", "value": 5, "unit": "kg"}, {"measurement": "Production amount of stag's horn: the second horn collected in the next spring", "setting": "[2]; Elk 33, 500 kg, dose 250 mg (0.5 mg/kg), first horn 15 kg", "value": 12, "unit": "kg"}, {"measurement": "Production amount of stag's horn: the second horn collected in the next spring", "setting": "[2]; Elk 34, 500 kg, dose 500 mg (1.0 mg/kg), first horn 15 kg", "value": 12, "unit": "kg"}, {"measurement": "Production amount of stag's horn: the second horn collected in the next spring", "setting": "[2]; Elk 35, 500 kg, dose 750 mg (1.5 mg/kg), first horn 15 kg", "value": 12, "unit": "kg"}, {"measurement": "Production amount of stag's horn: the second horn collected in the next spring", "setting": "[2]; Elk 36, 500 kg, dose 1,000 mg (2.0 mg/kg), first horn 15 kg", "value": 12, "unit": "kg"}, {"measurement": "Production amount of stag's horn: the second horn collected in the next spring", "setting": "[2]; Elk 37, 500 kg, dose 2,500 mg (5.0 mg/kg), first horn 15 kg", "value": 5, "unit": "kg"}, {"measurement": "Production amount of stag's horn: the second horn collected in the next spring", "setting": "[2]; Elk 38, 500 kg, dose 5,000 mg (10 mg/kg), first horn 15 kg", "value": 5, "unit": "kg"}, {"measurement": "growth of stag's horn", "setting": "[2]; elk 500 kg, doses 0.1, 0.2, 0.5, 1.0, 1.5, 2.0, 5.0 and 10 mg per kg", "value": "promoted"}]}
